Like-named read-outs stand apart in the source and are kept apart here.
Key:
[1] = Effects of age and gender on fasted PK parameters, study 106 (2×400 mg without food); format: in vivo, human
Experimental: In addition, the robustness of the results are assessed by applying similar analysis approaches to the data from two other studies: • Study AN151607-101 (hereafter referred to as the 101 study): a two-period, randomized crossover trial with treatment conditions 1×400 mg with food and 1×400 mg without food; • Study AN151607-106 (hereafter referred to as the 106 study): a single dose trial with treatment condition 2×400 mg without food.
Study 106 was a single dose trial conducted in 48 healthy volunteers. The mean age was 24.7 years, with a range from 18 to 50 years. The single treatment condition in this study was 2×400 mg without food. Blood samples for PK analyses were obtained at the same time points as in the 103 and 105 studies.
First, Pearson and Spearman correlation coefficients between age and each of the three PK parameters were computed. The correlation coefficients and two-sided p-values from the test of the null hypothesis of no association are shown below in TABLE VIIIa:
Linear regression models using the natural logarithm of each of the three PK parameters as the dependent variable and age as the independent variable were fitted in order to estimate the magnitude of the associations with age.
Study 106 was a single dose trial conducted in 48 healthy volunteers (24 males, 24 females). The mean age was 24.7 years, with a range from 18 to 50 years. The single treatment condition in this study was 2×400 mg without food. Blood samples for PK analyses were obtained at the same time points as in the 103 and 105 studies.
The same regression modeling strategy as was described in Sections 3.2 and 3.3 was also used. In the initial regression models with a gender effect and separate age effects for males and females, the parameter estimates for all three variables were negative for males and positive for females. In addition, the age effect in females was statistically significant for ln(AUC(last)) and ln(AUC(inf)). However, the tests of equality between the age effects for males and females (i.e., the age-by-gender interaction) were not statistically significant for any of the three variables; the p-values ranged from 0.08 to 0.11.

[2] = Food effect study: single oral Skelaxin 400 mg tablet with vs without food, healthy subjects, plasma pharmacokinetics; format: in vivo, human; details: for AUC(0-inf) / AUC(0-t) / Cmax / half-life / Tmax: both sexes, human, plasma, oral, 400 mg; for half-life: read-out: T1/2, least squares mean (converted); for Tmax: read-out: Tmax, least squares mean
Experimental: The effect of food on metaxalone absorption was identified in a study designed to compare the bioavailability of 400 mg of metaxalone in the formulation the drug product Skelaxin® administered to healthy volunteers with and without food.
An objective was to evaluate the bioavailability of metaxalone when administered to subjects with and without food. A single center, single dose, open-label, two-period, randomized, crossover trial in healthy subjects was conducted over a period of approximately 32 days.
Treatment A: metaxalone tablet (400 mg) administered with food
Treatment B: metaxalone tablet (400 mg) administered without food
In fed treatment condition A, study drug was taken 15 minutes after the test meal. The test meal was consumed over a 15 minute time period. There was a 6-day washout period between study drug administrations. Seventeen blood samples were collected, starting with baseline (0 hour) and at the following time points: 0.5, 1, 1.5, 2, 2.5, 3, 3.5, 4, 4.5, 5, 6, 8, 12, 16; 24, and 36 hours.
A total of 44 subjects (31 males/13 females) were enrolled and dosed. Only the plasma of subjects who completed the study were assayed and used for the pharmacokinetic analysis.
A single center, single dose, open label, two-period crossover trial was devised for study in healthy subjects. Each administration was a single oral dose of one Skelaxin® 400 mg tablet with or without food. The study drug was administered as follows:
Treatment A: One (1) 400 mg tablet of metaxalone with 240 mL of room temperature water with food: Breakfast was given to the subjects 30 Minutes prior to dosing and eaten within a 15 minute period. The dose of study drug was administered to the subjects 15 minutes after the breakfast was finished.
Treatment B: One (1) 400 mg tablet of metaxalone with 240 mL of room temperature water without food. The study drug was administered with 240 mL room temperature water. A mouth check was performed to verify that the subjects swallowed the dose. Subjects were sequentially dosed at 1-minute intervals. The actual time of dosing was recorded on the Master Flow Sheet (refer to the Appendix 16.3.2 Clinical Study Data). Drug administration (1×400 mg tablet) was assisted with 240 mL of room temperature water consumed under direct observation. Immediately after administration of product, the subject's oral cavity was checked to confirm complete medication and fluid consumption. Dosing was completed as scheduled in 42 of 44 subjects.
The drug substance, metaxalone, was dosed in tablet form. Content 400 mg; Route: Oral, Batch/Lot No.: SKLWW263F; Expiration Date: FEB03; Manufacturer: West-Ward Pharmaceutical Corp.
All pharmacokinetic parameters were analyzed by noncompartmental methods. The following PK parameters were calculated for the two PK profiles and are defined as follows: […]
Tmax: Time to maximum concentration;
Cmax: Observed maximum concentration;
kel: Slope of terminal linear portion of concentration/time curve;
T1/2: Half-life of metaxalone calculated as: 0.693/Kel;
AUC(last): Area under the curve to last quantifiable concentration as measured by the trapezoidal rule;
AUC(inf): The AUC value extrapolated to infinity calculated as:
AUC(inf)=AUC(last)+C(t)last/Kel where C(t)last is the last measurable concentration.
All statistical analyses were performed using SAS® software version 6.08 or higher. The pharmacokinetic parameters between the two treatments were compared using an appropriate ANOVA model (analysis of variance) that includes terms for treatment, sequence, and period effect. Ninety percent confidence intervals were computed for the Cmax and AUC values of the fed treatment with fasting as the reference treatment. During the study there were no protocol deviations to confound the pharmacokinetic and bioavailability analyses. Study results were not corrected for drug potency.
Differences were declared to be significant at the 5% level. […]

[3] = Treatment A: 400 mg tablet with food
[4] = Treatment B: 400 mg tablet without food
[5] = fed vs fasted, ln-transformed data

## Cc1cc(C)cc(OCC2CNC(=O)O2)c1 (centres unmarked) [metaxalone, 5-[(3,5-dimethylphenoxy)methyl]-2 oxazolidinone]
[1]; females n=24
  Pearson correlation, age vs ln(AUC(inf)): 0.416
  Pearson correlation, age vs ln(AUC(last)): 0.431
  Pearson correlation, age vs ln(Cmax): 0.336
  Spearman correlation, age vs ln(AUC(inf)): 0.368
  Spearman correlation, age vs ln(AUC(last)): 0.428
  Spearman correlation, age vs ln(Cmax): 0.279
[1]; males n=24
  Pearson correlation, age vs ln(AUC(inf)): −0.184
  Pearson correlation, age vs ln(AUC(last)): −0.178
  Pearson correlation, age vs ln(Cmax): −0.202
  Spearman correlation, age vs ln(AUC(inf)): −0.368
  Spearman correlation, age vs ln(AUC(last)): −0.365
  Spearman correlation, age vs ln(Cmax): −0.316
[1]; n=48
  Pearson correlation, age vs ln(AUC(inf)): 0.348
  Pearson correlation, age vs ln(AUC(last)): 0.349
  Pearson correlation, age vs ln(Cmax): 0.260
  Spearman correlation, age vs ln(AUC(inf)): 0.173
  Spearman correlation, age vs ln(AUC(last)): 0.189
  Spearman correlation, age vs ln(Cmax): 0.125
[2]; 400 mg tablets, single dose, with food vs without
  Bioavailability when administered with food: increased
[2]; Treatment A: 400 mg tablet with food, read-out: AUC(inf), least squares mean
  AUC(0-inf): 8.54 µg·h/mL
[2]; Treatment A: 400 mg tablet with food, read-out: AUC(last), least squares mean
  AUC(0-t): 8.44 µg·h/mL
[2]; Treatment A: 400 mg tablet with food, read-out: Cmax, least squares mean
  Cmax: 1.77 µg/mL
[2]; Treatment A: 400 mg tablet with food, read-out: Ln-Transformed AUC(inf), geometric mean
  AUC(0-inf): 7.63 µg·h/mL
[2]; Treatment A: 400 mg tablet with food, read-out: Ln-Transformed AUC(last), geometric mean
  AUC(0-t): 7.53 µg·h/mL
[2]; Treatment A: 400 mg tablet with food, read-out: Ln-Transformed Cmax, geometric mean
  Cmax: 1.54 µg/mL
[2]; [3]
  half-life: 2.37 h
  Tmax: 4.29 h
[2]; Treatment B: 400 mg tablet without food, read-out: AUC(inf), least squares mean
  AUC(0-inf): 7.48 µg·h/mL
[2]; Treatment B: 400 mg tablet without food, read-out: AUC(last), least squares mean
  AUC(0-t): 6.96 µg·h/mL
[2]; Treatment B: 400 mg tablet without food, read-out: Cmax, least squares mean
  Cmax: 0.983 µg/mL
[2]; Treatment B: 400 mg tablet without food, read-out: Ln-Transformed AUC(inf), geometric mean
  AUC(0-inf): 6.62 µg·h/mL
[2]; Treatment B: 400 mg tablet without food, read-out: Ln-Transformed AUC(last), geometric mean
  AUC(0-t): 6.09 µg·h/mL
[2]; Treatment B: 400 mg tablet without food, read-out: Ln-Transformed Cmax, geometric mean
  Cmax: 0.865 µg/mL
[2]; [4]
  half-life: 9.04 h
  Tmax: 3.32 h
[2]; [5]
  % Ratio (A/B) AUC(inf): 115.35%
  % Ratio (A/B) AUC(last): 123.48%
  % Ratio (A/B) Cmax: 177.53%

— patent US7714006B1, “Methods of modifying the bioavailability of metaxalone” (King Pharmaceuticals Research & Development, Inc., priority 2001, dated 2010)
